Assay results reported in patent US20020173511A1, “Serotonergic compositions and methods for treatment of mild cognitive impairment” (priority 2000, published 2002).

Experiments:
[1] = test system: APPs levels in the cerebrospinal fluid; test: Western blot of secreted APPs in CSF after i.p. injection; assay type: in vivo, guinea pig; details: for APPs levels in the cerebrospinal fluid relative to saline-injected control: CSF one hour after injection, p<0.05; for Inhibition of the stimulatory effect of dexnorfenfluramine (1 mg/kg) on APPs in CSF: ritanserin 1 mg/kg or ketanserin 2 mg/kg, CSF one hour after injections
Excerpt: (§1) Guinea pigs are acclimatized to animal housing conditions for at least 70 days before receiving drug treatments or CSF withdrawal. CSF is withdrawn from the cisternae magna. Briefly, the dorsal cervical area and the occipital area of the skull is shaved and cleansed with alcohol after anesthesizing the guinea pigs with ketamine. A 33-gauge needle is used to penetrate the skin, the atlanto-occipital membrane and the dura mater in the region between the anterior of the first vertebra, and posterior of the cerebellum and the occipital protuberance. Upon penetration of the cistemae magna, a slight resistance in advancing the needle is felt; CSF is withdrawn via a PE10 polyethylene tubing attached to the needle at one end, and to a 20 ml syringe at the other. No more than 200 μL of CSF is withdrawn from each guinea pig per session or within a 24h interval. Occasionally, blood is present in the CSF; these samples are discarded and not used for analysis. The entire procedure for CSF withdrawal is completed within 5 minutes.
[…] Sterile normal saline is given control guinea pigs. To determine the time-course of APPs secretion, CSF is withdrawn at 1, 2, 4 or 8h after i.p. injections of either 1 mg/kg dexnorfenfluramine or saline. To determine the effect of chronic dexnorfenfluramine administration on secreted and brain APP levels, guinea pigs are injected with 2 mg/kg dexnorfenfluramine for 10 consecutive days. Withdrawal of CSF is performed 2h after dexnorfenfluramine on the tenth day, after which the guinea pigs are sacrificed and brains removed for analysis. Each guinea pig is repeatedly and randomly assigned on different days for either dose-response, for time-course, and for dexnorfenfluramine-5HT antagonist studies of APPs or Aβ secretion.
CSF (1-200 μL) is used for Western blot analysis of secreted APPs. For analysis of APP holoprotein, brain tissue from the cortex and hippocampus are collected in Eppendorf tubes and sonicated in 50 μL lysis buffer (60 mM Tris-HCl, 4%SDS, 20% glycerol, 1 mM dithiotreitol). The samples are boiled for 10 min to inhibit protease activity. The total amount of protein in each sample is measured by the bicinchoninic acid (Sigma) assay. Prior to gel electrophoresis, 1 μL of 5% bromphenol blue solution is added to each sample.
The amount of CSF or cell protein loaded for sodium dodecyl sulfate-polyacrylamide gel electrophoresis (10-20% SDS PAGE; Bio-Rad) is normalized for the amount of protein per sample. Proteins (equivalent to ˜100 μg cell protein/lane) are separated by electrophoresis, electroblotted onto polyvinylidene difluoride membranes (Immobilon-P, Millipore) and blocked in Tris-buffered saline with 0.15% Tween 20 (TBST) containing 5% powdered milk for 30 min. After 2×10 min rinses in TBST, the membranes are incubated in TBST containing an appropriate antibody. Monoclonal antibody 22C11 (from Boehringer-Mannheim) and APP-KPI (from Chemicon) were used to detect the N-terminus and KPI-domain of APP respectively; an antibody against glial fibrillary acidic […] (GFAP) is obtained from Chemicon.
After an overnight incubation, membranes are rinsed in TBST before being treated for lh with a peroxidase-linked secondary antibody. After several rinses in TBST, protein bands are visualized on Kodak X-AR films by an enhanced chemiluminescence method (Amersham). Optical densities of the protein bands are quantitated by laser scanning densitometry (LKB, Bromma, Sweden), and normalized to the densities of those bands generated under control conditions.
Data Analysis—Measurements of cellular and secreted proteins are normalized against those of control groups prepared in parallel and loaded onto the same blot. Analyses of variance (ANOVA) and t-tests for repeated measures are used to evaluate differences between groups (significance level, p=0.05), using drug treatments as the independent variable. Data are presented as means±SE, n=number of independent experiments.

[2] = test system: Aβ1-40 in the cerebrospinal fluid; test: Aβ40 ELISA of CSF after i.p. injection; assay type: in vivo, guinea pig
Excerpt: as §1, with “minutes. […]” for “minutes.”
(§2) Measurements of soluble Aβ1-40 or Aβ1-42 in the CSF are quantified using the Aβ40 or Aβ42 enzyme-linked immunosorbent assay (ELISA) kit (QBC, Hopkinton, Mass.) using the procedures recommended by the manufacturer. […]

[3] = test system: Aβ1-42 in the cerebrospinal fluid; test: Aβ42 ELISA of CSF after i.p. injection; assay type: in vivo, guinea pig
Excerpt: as §1, with “minutes. […]” for “minutes.”
as §2

Brain APP holoprotein = test: Western blot of brain APP holoprotein after chronic administration; assay type: in vivo, guinea pig; details: 10 consecutive days i.p., 1 mg/kg, p>0.05
[4] = test system: GFAP-immunoreactive cultured astrocytes; test: APP overexpression in cultured astrocytes; assay type: cell-based, rat
Protocol: Astrocytes are isolated from cortices from postnatal rats by methods standard in the art. In brief, dissected cortices are dissociated by trypsinization and trituration through a flamepolished Pasteur pipette. Cells are plated onto poly-L-lysine coated 35- or 100 mm culture dishes at densities of about 10-25 cells/mm^2. The initial culture media, minimal essential medium (MEM, Gibco) containing 10% horse serum (BioWhittaker), are aspirated after 2-5 h after plating to remove unattached cells and debris, and replaced with MEM containing 7.5% fetal bovine serum (FBS, BioWhittaker). Half the media is replaced with MEM/7.5% FBS twice weekly. Cells are kept at 37° C. in a humidified 5% CO2/95% air incubator. Media are changed twice weekly. […]
The amount of media or cell protein loaded for sodium dodecyl sulfate-polyacrylamide gel electrophoresis (10-20% SDS PAGE; Bio-Rad) is normalized for the amount of protein per sample. […] Monoclonal antibodies 22C11 and GFAP (both from Boehringer Mannheim) are used to detect the N-terminus of APP and glial fibrillary acidic protein respectively; antisera R37 and R98 (gifts of Dr. F. Kametani, Tokyo Institute of Psychiatry) are used to detected the C-terminus and KPI motifs of APP respectively; antiserum C8 (gift of Dr. D. Selkoe, Women's Hospital, Harvard Medical School, Cambridge, Mass.) is used to detect the C-terminus of APP. […]

[5] = 10 consecutive days i.p., 1 mg/kg
[6] = 0.5, 1, 2 or 4 mg/kg, single injection, p>0.05

SMILES | APPs levels in the cerebrospinal fluid relative to saline-injected control ([1]; 0.5 mg/kg i.p.) [fold] | APPs levels in the cerebrospinal fluid relative to saline-injected control ([1]; 1 mg/kg i.p.) [fold] | APPs levels in the CSF relative to control group ([1]; 1 mg/kg, 1h after injection) [fold] | APPs levels in the CSF relative to control group ([1]; 1 mg/kg, 2h after injection) [fold] | APPs levels in the CSF relative to control group ([1]; 1 mg/kg, 4h after injection) [fold] | APPs levels in the CSF relative to control group ([1]; 1 mg/kg, 8h after injection) [fold] | APPs levels in the cerebrospinal fluid relative to saline-injected control ([1]; 2 mg/kg i.p.) [fold] | APPs levels in the cerebrospinal fluid relative to saline-injected control ([1]; 4 mg/kg i.p.) [fold] | Increase of APPs levels in CSF relative to control [1, 5] [fold] | Effect on levels of Aβ1-40 in the cerebrospinal fluid relative to control [2, 6] | Aβ1-40 levels in CSF relative to control [2, 5] | Effect on levels of Aβ1-42 in the cerebrospinal fluid relative to control [3, 6] | Aβ1-42 levels in CSF relative to control [3, 5] | Brain APP holoprotein levels (Brain APP holoprotein) | Effect on APP overexpression in cultured astrocytes [4] | Inhibition of the stimulatory effect of dexnorfenfluramine (1 mg/kg) on APPs in CSF [1]
CC(N)Cc1cccc(C(F)(F)F)c1 (single isomer, unassigned; (+)) [dexnorfenfluramine, (+)2-amino-1-(3-trifluoromethylphenyl) propane] | 1.25 | 1.45 | 1.5 | 2.0 | 1.3 | 1.5 | 1.6 | 1.4 | 1.6 | no significant effect | decreased | no significant effect | decreased | not altered | can inhibit APP overexpression | 
Cc1nc2sccn2c(=O)c1CCN1CCC(=C(c2ccc(F)cc2)c2ccc(F)cc2)CC1 [ritanserin] |  |  |  |  |  |  |  |  |  |  |  |  |  |  |  | completely inhibited
O=C(c1ccc(F)cc1)C1CCN(CCn2c(=O)[nH]c3ccccc3c2=O)CC1 [ketanserin] |  |  |  |  |  |  |  |  |  |  |  |  |  |  |  | completely inhibited
